Measured values from patent publication US20260078130A1, “NAMPT MODULATORS, PREPARATIONS, AND USES THEREOF” (SIRONAX LTD., priority 2022, published 2026).

Assays:
[1] = tested on: endogenous NAMPT in U2OS cells; experiment: Cellular NAD+ modulation assay (NAD/NADH-Glo, U2OS cells); format: cell-based; conditions: Homo sapiens, 24 hours incubation with compound; for maximal fold induction: read-out: Cellular Emax
Outline: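 NAD/NADH-Glo luminescence quantified NAD+ after acid treatment (60 °C, 15 min) and neutralization of DTAB lysates. Beforehand, U2OS cells seeded 16 h earlier received compound concentration series for 24 h at 37 °C. Values given as half-maximal activation concentration (EC50) and maximal fold change versus DMSO (Emax).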

[2] = target: T1, human enzyme NAMPT (full length) (Homo sapiens, UniProt P43490); experiment: NMN fluorescence biochemical assay (stimulation of NMN synthesis by NAMPT); conditions: for EC50: NMN synthesis by purified human NAMPT (100 nM), concentration giving half-maximal activation, read-out: Enzymatic EC50; for Enzymatic Emax: fold change of maximal activation compared to DMSO
T1 construct: human enzyme NAMPT (full length)
T1 sequence (P43490 whole entry): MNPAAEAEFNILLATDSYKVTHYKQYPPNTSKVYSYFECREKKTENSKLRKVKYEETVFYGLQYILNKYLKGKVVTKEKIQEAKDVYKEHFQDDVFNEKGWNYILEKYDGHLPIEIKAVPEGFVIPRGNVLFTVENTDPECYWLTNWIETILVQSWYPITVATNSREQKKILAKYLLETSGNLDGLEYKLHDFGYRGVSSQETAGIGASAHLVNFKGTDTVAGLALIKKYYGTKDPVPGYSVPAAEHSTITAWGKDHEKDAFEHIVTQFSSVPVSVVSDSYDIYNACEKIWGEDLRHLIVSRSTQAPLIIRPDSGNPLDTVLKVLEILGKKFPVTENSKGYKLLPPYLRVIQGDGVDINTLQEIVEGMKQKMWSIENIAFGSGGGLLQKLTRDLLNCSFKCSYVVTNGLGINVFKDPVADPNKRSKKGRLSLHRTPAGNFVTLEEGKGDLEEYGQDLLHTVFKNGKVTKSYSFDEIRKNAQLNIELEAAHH
Outline: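 Full-length human NAMPT (100 nM) was preincubated 15 min at 37 °C with compound in 50 mM Tris-HCl pH 7.5, 10 mM MgCl2, 2 mM DTT, then reacted 1 h at 37 °C with 50 μM NAM, 100 μM PRPP, 4 mM ATP (stated solution concentrations). NMN was derivatised with acetophenone/KOH then formic acid and read at Ex/Em 382/445 nm; EC50 and Emax (fold over DMSO) reported.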

| Compound | EC50 [1] | EC50 [2] | Enzymatic Emax [2] | maximal fold induction [1] |
| --- | --- | --- | --- | --- |
| O=C1c2ccccc2CN1Cc1ccc2[nH]nnc2c1 [Compound 289, 2-((1H-benzo[d][1,2,3]triazol-5-yl)methyl)isoindolin-1-one] | 5000 to 50000 nM | ≥ 5000 nM | C (2≥C) | 1.2 to 1.5 |
| NC(=O)Nc1ccc(CN2Cc3ccccc3C2=O)cc1 [Compound 293, 1-(4-((1-oxoisoindolin-2-yl)methyl)phenyl)urea] | 5000 to 50000 nM | < 500 nM | C (2≥C) | > 1.5 |
| COC(=O)Nc1ccc(CN2Cc3ccccc3C2=O)cc1 [Compound 294, methyl (4-((1-oxoisoindolin-2-yl)methyl)phenyl)carbamate] | 5000 to 50000 nM | ≥ 5000 nM | C (2≥C) | > 1.5 |
| Cc1cccc2c1C(=O)N(Cc1ccc(O)cc1)C2=O [Compound 295, 2-(4-hydroxybenzyl)-4-methylisoindoline-1,3-dione] | 500 to 5000 nM | 500 to 5000 nM | C (2≥C) | 1.2 to 1.5 |
| O=C1c2cccc(Br)c2C(=O)N1Cc1ccc(O)cc1 [Compound 296, 4-bromo-2-(4-hydroxybenzyl)isoindoline-1,3-dione] | 500 to 5000 nM | 500 to 5000 nM | C (2≥C) | 1.2 to 1.5 |
| Cc1ccc2c(c1)C(=O)N(Cc1ccc3[nH]c(=O)oc3c1)C2=O [Compound 297, 5-methyl-2-((2-oxo-2,3-dihydrobenzo[d]oxazol-6-yl)methyl)isoindoline-1,3-dione] | 500 to 5000 nM | 500 to 5000 nM | C (2≥C) | 1.2 to 1.5 |
| O=C1c2ccc(N3CCCC3)cc2CN1Cc1ccc(O)cc1 [Compound 298, 2-(4-hydroxybenzyl)-5-(pyrrolidin-1-yl)isoindolin-1-one] | 500 to 5000 nM | 500 to 5000 nM | C (2≥C) | 1.2 to 1.5 |
| O=C1c2ccc(Br)cc2CN1Cc1ccc2[nH]c(=O)oc2c1 [Compound 299, 6-((5-bromo-1-oxoisoindolin-2-yl)methyl)benzo[d]oxazol-2(3H)-one] | 500 to 5000 nM | 500 to 5000 nM | C (2≥C) | 1.2 to 1.5 |
| O=C1c2ccc(N3CCCC3)cc2CN1Cc1ccc2[nH]c(=O)oc2c1 [Compound 300, 6-((1-oxo-5-(pyrrolidin-1-yl)isoindolin-2-yl)methyl)benzo[d]oxazol-2(3H)-one] | 5000 to 50000 nM | ≥ 5000 nM | C (2≥C) | 1.2 to 1.5 |
| Cn1c2ccccc2c(=O)n1Cc1ccc2[nH]nnc2c1 [Compound 301, 2-((1H-benzo[d][1,2,3]triazol-5-yl)methyl)-1-methyl-1,2-dihydro-3H-indazol-3-one] | 5000 to 50000 nM | ≥ 5000 nM | C (2≥C) | 1.2 to 1.5 |
| Cn1ncc(Cl)c1CC1c2ccc(F)cc2C(=O)N1CC1CC2(CNC(=O)O2)C1 (stereo not drawn) [Compound 310, 2-((1-((4-chloro-1-methyl-1H-pyrazol-5-yl)methyl)-5-fluoro-3-oxoisoindolin-2-yl)methyl)-5-oxa-7-azaspiro[3.4]octan-6-one] | < 500 nM | 500 to 5000 nM | B (3≥B>2) | > 1.5 |
| Cn1ncc(Cl)c1CC1c2cc(C3CC3)ccc2C(=O)N1CC1CC2(CNC(=O)O2)C1 (stereo not drawn) [Compound 311, 2-((3-((4-chloro-1-methyl-1H-pyrazol-5-yl)methyl)-5-cyclopropyl-1-oxoisoindolin-2-yl)methyl)-5-oxa-7-azaspiro[3.4]octan-6-one] | < 500 nM | 500 to 5000 nM | B (3≥B>2) | > 1.5 |
| Cn1ncc(Cl)c1C[C@H]1c2ccccc2C(=O)N1C/C=C/c1c[nH]nn1 [Compound 312, (S,E)-2-(3-(1H-1,2,3-triazol-4-yl)allyl)-3-((4-chloro-1-methyl-1H-pyrazol-5-yl)methyl) isoindolin-1-one] | < 500 nM | < 500 nM | B (3≥B>2) | > 1.5 |
| O=C1c2ccccc2C(Cc2ncccc2Br)N1C/C(F)=C/c1c[nH]nn1 (stereo not drawn) [Compound 314, (Z)-3-((3-bromopyridin-2-yl)methyl)-2-(2-fluoro-3-(1H-1,2,3-triazol-4-yl)allyl)isoindolin-1-one] | < 500 nM | < 500 nM | B (3≥B>2) | > 1.5 |
| Cn1cnc(C#N)c1CC1c2ccccc2C(=O)N1Cc1ccc2[nH]nnc2c1 (stereo not drawn) [Compound 315, 5-((2-((1H-benzo[d][1,2,3]triazol-5-yl)methyl)-3-oxoisoindolin-1-yl)methyl)-1-methyl-1H-imidazole-4-carbonitrile] | 5000 to 50000 nM | 500 to 5000 nM | A (A>3) | 1.2 to 1.5 |
| COc1nn(C)c(CC2c3ccccc3C(=O)N2Cc2ccc3[nH]nnc3c2)c1Cl (stereo not drawn) [Compound 316, 2-((1H-benzo[d][1,2,3]triazol-5-yl)methyl)-3-((4-chloro-3-methoxy-1-methyl-1H-pyrazol-5-yl)methyl)isoindolin-1-one] | < 500 nM | < 500 nM | B (3≥B>2) | 1.2 to 1.5 |
| Cn1ncc(C#N)c1CC1c2ccccc2C(=O)N1Cc1ccc2[nH]nnc2c1 (stereo not drawn) [Compound 317, 5-((2-((1H-benzo[d][1,2,3]triazol-5-yl)methyl)-3-oxoisoindolin-1-yl)methyl)-1-methyl-1H-pyrazole-4-carbonitrile] | < 500 nM | < 500 nM | C (2≥C) | 1.2 to 1.5 |

More lines, main results first:

| EC50 [1] | EC50 [2] | Enzymatic Emax [2] | Compound | maximal fold induction [1] |
| --- | --- | --- | --- | --- |
| < 500 nM | < 500 nM | A (A>3) | N#Cc1cncc(Cl)c1CC1c2ccccc2C(=O)N1Cc1ccc2[nH]nnc2c1 (stereo not drawn) [Compound 278, 4-((2-((1H-benzo[d][1,2,3]triazol-5-yl)methyl)-3-oxoisoindolin-1-yl)methyl)-5-chloronicotinonitrile] | > 1.5 |
| < 500 nM | < 500 nM | B (3≥B>2) | Cn1ncc(Cl)c1CC1c2ccccc2C(=O)N1Cc1ccc2[nH]nnc2c1 (stereo not drawn) [Compound 279, 2-((1H-benzo[d][1,2,3]triazol-5-yl)methyl)-3-((4-chloro-1-methyl-1H-pyrazol-5-yl)methyl) isoindolin-1-one] | > 1.5 |
| < 500 nM | < 500 nM | B (3≥B>2) | N#Cc1nccc(Br)c1CC1c2ccccc2C(=O)N1Cc1ccc2[nH]nnc2c1 (stereo not drawn) [Compound 282, 3-((2-((1H-benzo[d][1,2,3]triazol-5-yl)methyl)-3-oxoisoindolin-1-yl)methyl)-4-bromopicolinonitrile] | 1.2 to 1.5 |
| < 500 nM | < 500 nM | A (A>3) | N#Cc1cncc(C#N)c1CC1c2ccccc2C(=O)N1Cc1ccc2[nH]c(=O)oc2c1 (stereo not drawn) [Compound 283, 4-((3-oxo-2-((2-oxo-2,3-dihydrobenzo[d]oxazol-6-yl)methyl)isoindolin-1-yl)methyl) pyridine-3,5-dicarbonitrile] | 1.2 to 1.5 |
| < 500 nM | < 500 nM | A (A>3) | Cc1ccnc(C#N)c1CC1c2ccccc2C(=O)N1Cc1ccc2[nH]nnc2c1 (stereo not drawn) [Compound 284, 3-((2-((1H-benzo[d][1,2,3]triazol-5-yl)methyl)-3-oxoisoindolin-1-yl)methyl)-4-methylpicolinonitrile] | 1.2 to 1.5 |
| < 500 nM | < 500 nM | C (2≥C) | CC1c2ccccc2C(=O)N1Cc1ccc(NC(=O)NCc2ccncc2)cc1 (stereo not drawn) [Compound 291, 1-(4-((1-methyl-3-oxoisoindolin-2-yl)methyl)phenyl)-3-(pyridin-4-ylmethyl)urea] | 1.2 to 1.5 |
| < 500 nM | < 500 nM | C (2≥C) | CC1c2ccccc2C(=O)N1Cc1ccc(NC(=O)NCc2cn[nH]c2)cc1 (stereo not drawn) [Compound 292, 1-((1H-pyrazol-4-yl)methyl)-3-(4-((1-methyl-3-oxoisoindolin-2-yl)methyl)phenyl)urea] | ≤ 1.2 |
| < 500 nM | 500 to 5000 nM | B (3≥B>2) | Cn1ncc(Cl)c1CC1c2ccccc2C(=O)N1CC1CC2(CNC(=O)O2)C1 (stereo not drawn) [Compound 307, 2-((1-((4-chloro-1-methyl-1H-pyrazol-5-yl)methyl)-3-oxoisoindolin-2-yl)methyl)-5-oxa-7-azaspiro[3.4]octan-6-one] | > 1.5 |
| < 500 nM | < 500 nM | B (3≥B>2) | Cc1ccnc(C#N)c1CC1c2ccccc2C(=O)N1CC1CC2(CNC(=O)O2)C1 (stereo not drawn) [Compound 308, 4-methyl-3-((3-oxo-2-((6-oxo-5-oxa-7-azaspiro[3.4]octan-2-yl)methyl)isoindolin-1-yl)methyl)picolinonitrile] | > 1.5 |
| < 500 nM | < 500 nM | B (3≥B>2) | Cn1ncc(Cl)c1CC1c2cccc(F)c2C(=O)N1CC1CC2(CNC(=O)O2)C1 (stereo not drawn) [Compound 309, 2-((1-((4-chloro-1-methyl-1H-pyrazol-5-yl)methyl)-4-fluoro-3-oxoisoindolin-2-yl)methyl)-5-oxa-7-azaspiro[3.4]octan-6-one] | > 1.5 |
